Results from patent US20090238808A1, “Process for the identification of novel enzyme interacting compounds” (priority 2005, published 2009).

How the values were obtained:
Assay in all cases: Kinobeads elution with test compound, mouse brain lysate, MS
Type in all cases: binding
Details in all cases: kinase released from kinobeads by specific elution
AAK1 = AAK1 (Mus musculus, UniProt Q3UHJ0)
Outline: (§1)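 Competitive elution: mouse brain lysate bound to kinobeads, gentle wash, test compound 1.0 mM in elution buffer, 30 min, 4° C; solvent control 2% DMSO/DMF. Eluates → DTT reduction, iodoacetamide alkylation, SDS gel → MS identification.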

CDK5 = CDK5 (Mus musculus, UniProt P49615)
Outline: as §1

CaMK2b = CaMK2b (Mus musculus, UniProt P28652)
Outline: as §1

FYN = target: T1, FYN (Mus musculus, UniProt P39688)
T1 construct: […]; from tissue; host or cells: mouse brain
Outline: as §1

MAP2K1 = target: T2, MAP2K1 (Mus musculus, UniProt P31938)
T2 construct: from tissue; host or cells: mouse brain
Outline: as §1

CaMK2g = CaMK2g (Mus musculus, UniProt Q923T9)
Description: (§2) This example illustrates competitive elution of proteins bound to kinobeads with non-modified test compounds (see particularly the fourth aspect of the invention).
(§3) The kinobeads were contacted with mouse brain lysate under conditions that allow the binding of the proteins in the lysate to the ligands. The binding conditions were close to physiological by choosing suitable buffer conditions preserving the function of the proteins. After removing non-captured proteins through a gentle washing procedure the bound proteins were contacted with a test compound for protein elution.
(§4) Various test compounds (see section 2.7) were used to release bound proteins following these steps:
(§5) 1. Resuspend beads with bound proteins (section 2.4) in 1×DP buffer/0.2% NP-40 as 1:3 slurry (volume/volume). 2. Transfer 20 μl the 1:3 slurry into MoBiTech columns (equivalent to 5 μl of beads). 3. Place the column into an Eppendorf tube and centrifuge it for 15 seconds at 800 rpm at 4° C. Close columns with lower lid. 4. Add 10 μl elution buffer containing 1.0 mM of the test compound (concentration ranges of 0.1 to 1.0 mM are suitable). As a control use elution buffer containing 2% DMSO or 2% DMF dependent on the solvent used for dissolving the test compound. Close column with upper lid. 5. Incubate for 30 minutes at 4° C. in an Eppendorf incubator at 700 rpm. 6. […] To harvest the eluate centrifuge 2 minutes at 2.000 rpm in table top centrifuge at room temperature. The typical volume of the eluate is approximately 15 μl. 7. Add 5 μl 4× NuPAGE SDS Sample Buffer (Invitrogen, NP0007) containing 100 mM DTT (DTT has to be added just prior to use). 8. Incubate for 30 minutes at 50° C. 9. Add 1/10 volume of 200 mg/ml iodoacetamide, incubate for 30 min at room temperature, protect from light. This reaction leads to the alkylation of cysteines for mass spectrometry. 10. Before loading samples onto the gel, centrifuge samples for 5 minutes at 15.000 rpm in order to remove precipitates. 11. […] 2.6 Preparation of Stock Solutions used in this Protocol
(§6) Search criteria varied depending on which mass spectrometer was used for the analysis.

GSK3B = target: T3, GSK3B (Mus musculus, UniProt Q9WV60)
T3 construct: from tissue; host or cells: mouse brain
Description: as §2, §3, §4, §5, §6

Sequence of CaMK2b (P28652 whole entry): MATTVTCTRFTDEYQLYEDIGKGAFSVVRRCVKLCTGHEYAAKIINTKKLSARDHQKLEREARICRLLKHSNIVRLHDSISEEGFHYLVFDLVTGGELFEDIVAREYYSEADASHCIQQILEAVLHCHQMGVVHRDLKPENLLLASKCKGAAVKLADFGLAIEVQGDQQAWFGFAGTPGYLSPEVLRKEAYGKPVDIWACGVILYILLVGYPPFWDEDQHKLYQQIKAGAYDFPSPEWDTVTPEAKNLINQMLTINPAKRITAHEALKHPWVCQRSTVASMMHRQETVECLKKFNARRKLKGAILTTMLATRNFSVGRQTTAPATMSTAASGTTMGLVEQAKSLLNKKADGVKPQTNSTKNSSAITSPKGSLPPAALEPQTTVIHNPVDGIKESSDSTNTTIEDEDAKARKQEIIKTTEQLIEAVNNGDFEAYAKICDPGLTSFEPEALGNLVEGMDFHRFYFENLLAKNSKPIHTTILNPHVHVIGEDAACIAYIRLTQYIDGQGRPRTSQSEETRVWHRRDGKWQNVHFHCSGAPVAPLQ
T2 sequence (P31938 whole entry): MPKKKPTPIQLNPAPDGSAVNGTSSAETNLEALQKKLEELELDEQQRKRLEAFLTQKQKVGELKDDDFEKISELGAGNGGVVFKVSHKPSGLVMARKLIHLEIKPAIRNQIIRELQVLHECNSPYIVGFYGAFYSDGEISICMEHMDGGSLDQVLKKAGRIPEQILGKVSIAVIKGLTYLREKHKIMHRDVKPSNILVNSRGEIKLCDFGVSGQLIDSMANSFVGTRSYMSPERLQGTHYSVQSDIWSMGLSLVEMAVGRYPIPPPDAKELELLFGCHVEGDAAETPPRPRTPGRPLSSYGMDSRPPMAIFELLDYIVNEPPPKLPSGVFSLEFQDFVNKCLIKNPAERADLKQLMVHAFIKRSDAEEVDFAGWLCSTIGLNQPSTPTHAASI
Sequence of CaMK2g (Q923T9 whole entry): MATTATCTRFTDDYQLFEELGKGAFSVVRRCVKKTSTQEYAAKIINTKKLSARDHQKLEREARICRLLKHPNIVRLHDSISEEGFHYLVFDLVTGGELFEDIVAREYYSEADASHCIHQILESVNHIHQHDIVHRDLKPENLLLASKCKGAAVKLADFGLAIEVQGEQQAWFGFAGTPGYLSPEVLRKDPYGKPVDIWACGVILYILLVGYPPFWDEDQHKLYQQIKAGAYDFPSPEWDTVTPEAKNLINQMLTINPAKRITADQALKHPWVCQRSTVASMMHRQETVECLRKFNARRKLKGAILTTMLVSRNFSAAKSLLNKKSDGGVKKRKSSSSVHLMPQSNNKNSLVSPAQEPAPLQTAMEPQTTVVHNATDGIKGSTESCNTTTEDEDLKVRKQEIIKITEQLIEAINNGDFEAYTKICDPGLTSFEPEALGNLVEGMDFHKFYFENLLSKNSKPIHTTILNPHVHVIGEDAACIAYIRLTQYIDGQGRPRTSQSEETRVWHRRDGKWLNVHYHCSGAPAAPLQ
Sequence of CDK5 (P49615 whole entry): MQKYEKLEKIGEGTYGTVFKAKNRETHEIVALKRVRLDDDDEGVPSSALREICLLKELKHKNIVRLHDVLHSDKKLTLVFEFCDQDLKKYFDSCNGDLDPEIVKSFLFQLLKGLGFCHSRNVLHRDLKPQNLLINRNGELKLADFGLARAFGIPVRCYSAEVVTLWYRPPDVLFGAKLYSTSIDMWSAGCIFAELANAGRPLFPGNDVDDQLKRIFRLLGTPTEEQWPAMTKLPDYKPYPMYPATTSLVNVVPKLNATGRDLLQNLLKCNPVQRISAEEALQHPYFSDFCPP
T1 sequence (P39688 whole entry): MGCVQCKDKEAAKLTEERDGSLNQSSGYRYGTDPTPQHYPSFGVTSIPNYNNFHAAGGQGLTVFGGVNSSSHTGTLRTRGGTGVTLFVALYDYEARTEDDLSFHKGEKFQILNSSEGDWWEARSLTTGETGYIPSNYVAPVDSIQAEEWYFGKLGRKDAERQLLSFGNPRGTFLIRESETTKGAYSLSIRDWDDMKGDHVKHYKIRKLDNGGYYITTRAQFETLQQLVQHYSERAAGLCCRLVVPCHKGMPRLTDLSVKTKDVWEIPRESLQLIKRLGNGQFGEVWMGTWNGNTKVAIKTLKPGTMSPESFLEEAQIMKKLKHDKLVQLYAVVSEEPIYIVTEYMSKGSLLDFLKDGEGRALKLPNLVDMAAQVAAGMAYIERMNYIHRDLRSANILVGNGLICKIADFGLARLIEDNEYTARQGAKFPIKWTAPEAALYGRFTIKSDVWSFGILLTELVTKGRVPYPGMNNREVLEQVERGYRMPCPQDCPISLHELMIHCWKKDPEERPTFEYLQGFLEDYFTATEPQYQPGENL
Sequence of AAK1 (Q3UHJ0 whole entry): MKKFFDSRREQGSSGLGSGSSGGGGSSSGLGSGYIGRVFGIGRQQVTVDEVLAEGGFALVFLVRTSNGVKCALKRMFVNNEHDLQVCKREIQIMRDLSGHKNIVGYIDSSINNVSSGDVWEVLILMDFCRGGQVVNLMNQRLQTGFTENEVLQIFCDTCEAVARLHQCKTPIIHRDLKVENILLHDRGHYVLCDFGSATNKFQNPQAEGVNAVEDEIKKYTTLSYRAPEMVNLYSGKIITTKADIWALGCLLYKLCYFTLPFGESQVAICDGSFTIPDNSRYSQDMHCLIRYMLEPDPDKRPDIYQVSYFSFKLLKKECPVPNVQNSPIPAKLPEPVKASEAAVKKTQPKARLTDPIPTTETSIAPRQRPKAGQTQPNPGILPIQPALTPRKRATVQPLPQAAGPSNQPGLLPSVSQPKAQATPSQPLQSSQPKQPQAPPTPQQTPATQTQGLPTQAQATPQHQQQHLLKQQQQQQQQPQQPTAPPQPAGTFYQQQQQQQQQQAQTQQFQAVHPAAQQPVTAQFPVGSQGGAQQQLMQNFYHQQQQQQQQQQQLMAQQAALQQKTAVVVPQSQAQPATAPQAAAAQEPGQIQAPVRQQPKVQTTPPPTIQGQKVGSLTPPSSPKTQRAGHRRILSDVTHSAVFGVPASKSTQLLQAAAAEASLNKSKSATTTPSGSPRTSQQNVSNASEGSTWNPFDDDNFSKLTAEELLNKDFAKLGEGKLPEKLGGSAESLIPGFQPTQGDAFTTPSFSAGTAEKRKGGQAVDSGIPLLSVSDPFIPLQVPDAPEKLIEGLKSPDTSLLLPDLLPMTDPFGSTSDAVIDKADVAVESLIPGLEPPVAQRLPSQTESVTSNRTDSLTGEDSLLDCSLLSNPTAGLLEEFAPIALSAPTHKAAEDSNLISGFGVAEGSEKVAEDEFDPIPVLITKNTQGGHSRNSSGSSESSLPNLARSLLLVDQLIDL
T3 sequence (Q9WV60 whole entry): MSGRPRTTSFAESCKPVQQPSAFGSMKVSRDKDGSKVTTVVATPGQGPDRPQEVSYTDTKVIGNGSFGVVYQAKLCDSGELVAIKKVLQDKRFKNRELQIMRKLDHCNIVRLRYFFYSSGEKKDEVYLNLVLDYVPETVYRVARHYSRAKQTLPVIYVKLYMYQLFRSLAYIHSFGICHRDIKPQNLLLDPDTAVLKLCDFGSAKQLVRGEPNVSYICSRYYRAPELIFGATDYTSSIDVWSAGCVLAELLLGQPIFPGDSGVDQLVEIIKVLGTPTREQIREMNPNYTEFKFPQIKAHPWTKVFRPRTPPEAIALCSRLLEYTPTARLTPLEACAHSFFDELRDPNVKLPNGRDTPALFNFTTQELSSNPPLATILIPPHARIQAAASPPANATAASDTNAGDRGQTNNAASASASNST

## CCCCCCCCCCCCOS(=O)(=O)[O-].[Na+] [SDS]
AAK1
  mass spectrometry score, AAK1: 240
  number of identified peptides, AAK1: 32
CDK5
  mass spectrometry score, CDK5: 604
  number of identified peptides, CDK5: 21
CaMK2b
  mass spectrometry score, CaMK2b: 615
  number of identified peptides, CaMK2b: 75
FYN
  mass spectrometry score, FYN: 407
  number of identified peptides, FYN: 17
MAP2K1
  mass spectrometry score, MAP2K1: 90
  number of identified peptides, MAP2K1: 4
CaMK2g
  mass spectrometry score, CaMK2g: 379
  number of identified peptides, CaMK2g: 42
GSK3B
  mass spectrometry score, GSK3B: 763
  number of identified peptides, GSK3B: 72

## CC(C)[C@H](CO)Nc1nc(Nc2ccc(C(=O)O)c(Cl)c2)c2ncn(C(C)C)c2n1 [Purvalanol B, reference compound]
AAK1
  mass spectrometry score, AAK1: 1036
  number of identified peptides, AAK1: 51
CDK5
  mass spectrometry score, CDK5: 1086
  number of identified peptides, CDK5: 41
CaMK2b
  mass spectrometry score, CaMK2b: 679
  number of identified peptides, CaMK2b: 16
FYN
  mass spectrometry score, FYN: 268
  number of identified peptides, FYN: 6
MAP2K1
  mass spectrometry score, MAP2K1: 78
  number of identified peptides, MAP2K1: 2
GSK3B
  mass spectrometry score, GSK3B: 1037
  number of identified peptides, GSK3B: 30

## CNC1CC2OC(C)(C1OC)n1c3ccccc3c3c4c(c5c6ccccc6n2c5c31)C(=O)NC4 (stereo not shown) [CZC9280]
AAK1
  mass spectrometry score, AAK1: 777
  number of identified peptides, AAK1: 44
CDK5
  mass spectrometry score, CDK5: 861
  number of identified peptides, CDK5: 43
CaMK2b
  mass spectrometry score, CaMK2b: 1182
  number of identified peptides, CaMK2b: 72
FYN
  mass spectrometry score, FYN: 314
  number of identified peptides, FYN: 6
MAP2K1
  mass spectrometry score, MAP2K1: 49
  number of identified peptides, MAP2K1: 2
CaMK2g
  number of identified peptides, CaMK2g: 25
GSK3B
  number of identified peptides, GSK3B: 59

## NCc1ccc(Nc2ncc(F)c(Nc3ccccc3)n2)cc1 [CZC00008004]
AAK1
  mass spectrometry score, AAK1: 718
  number of identified peptides, AAK1: 35
CDK5
  mass spectrometry score, CDK5: 794
  number of identified peptides, CDK5: 27
CaMK2b
  mass spectrometry score, CaMK2b: 685
  number of identified peptides, CaMK2b: 30
CaMK2g
  mass spectrometry score, CaMK2g: 527
  number of identified peptides, CaMK2g: 27
GSK3B
  mass spectrometry score, GSK3B: 881
  number of identified peptides, GSK3B: 26

## Cn1c(=O)c(-c2c(Cl)cccc2Cl)cc2cnc(Nc3ccc(CN)cc3)cc21 [CZC7324]
AAK1
  mass spectrometry score, AAK1: 582
  number of identified peptides, AAK1: 35
CDK5
  mass spectrometry score, CDK5: 462
  number of identified peptides, CDK5: 11
CaMK2b
  mass spectrometry score, CaMK2b: 499
  number of identified peptides, CaMK2b: 14
FYN
  mass spectrometry score, FYN: 279
  number of identified peptides, FYN: 6
GSK3B
  mass spectrometry score, GSK3B: 789
  number of identified peptides, GSK3B: 19
